pIC50: −log10 of the molar value.

A word on the IC50: it is the concentration that inhibits the measured activity by half. One may read the pIC50 as −log10 of the IC50, conventionally taken in molar units.

KRAS (aa 1-169) G12C, C51S, C80L, C118S, sequence (P01116 other isoform, or with tags, fused parts or gaps G12C/C51S/C80L/C118S): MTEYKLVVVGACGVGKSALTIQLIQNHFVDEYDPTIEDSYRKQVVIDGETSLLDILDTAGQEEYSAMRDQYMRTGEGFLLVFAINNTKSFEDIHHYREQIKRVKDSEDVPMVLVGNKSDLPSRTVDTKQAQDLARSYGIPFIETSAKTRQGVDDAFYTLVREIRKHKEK

One assay addresses KRAS (aa 1-169) G12C, C51S, C80L, C118S (Homo sapiens (Human), UniProt P01116, C118S/C51S/C80L/G12C). Put plainly: Biochemical functional assay: SOS1-mediated nucleotide exchange of GDP-loaded KRAS G12C, binding to GST-cRaf RBD, FRET readout. Particulars: 3 hrs pre-incubation with compound at 24° C., SOS1, GTPyS, bound in uM. On the procedure:
Biochemical Functional Assay
The KRAS (aa 1-169) G12C, C51S, C80L, C118S with a His-tag was expressed, purified and loaded with GDP in house. All protein and substrate solutions were prepared in assay buffer containing 25 mM HEPES pH7.5, 10 mM MgCl2, and 0.01% Triton X-100. Purified GDP-loaded KRAS (aa 1-169) G12C, C51S, C80L, C118S protein was pre-incubated with a serially diluted compound at 24° C. for 3 hrs. Purified SOS1 (aa 564-1049) protein, GTPyS (Sigma) and GST-cRaf RBD (aa 1-149) were then added to each well and incubated at 24° C. for additional 3 hrs. […] Following the incubation, Mab Anti-6HIS-T cryptate (Cisbio) and Mab Anti GST-XL665 (Cisbio) were added and further incubated at 24° C. for 3 hrs. The binding interaction between active GTPyS KRAS G12C and GST-cRaf RBD brings the Tb and XL665 into close proximity enabling an increased FRET signal (Ex337 nm, Em665 nm/620 nm). The inhibition percentage of nucleotide exchange reaction in presence of increasing concentrations of compounds was calculated based on the ratio of fluorescence at 665 nm to that at 620 nm detected on a BMG PHERAstar FSX instrument. The IC50 value of each compound was calculated from fitting the data to the four-parameter logistic model by Dotmatics.
`C=CC(=O)N1CCN(c2nc(N3CC(N(C)C)C3)nc3cc(-c4ccccc4Cl)c4c(c23)OCCC4)CC1` [Compound B21, 1-(4-(5-(2-chlorophenyl)-8-(3-(dimethylamino)azetidin-1-yl)-3,4-dihydro-2H-pyrano[2,3-f]quinazolin-10-yl)piperazin-1-yl)prop-2-en-1-one]: the IC50 was above 10 µM.

Still in this assay, the particulars now being: 3 hrs pre-incubation with compound at 24° C., SOS1, GTPyS, inhibition of nucleotide exchange.
As for `C=C(F)C(=O)N1CCN(c2nc(OC[C@@H]3C[C@@H](F)CN3C)nc3cc(-c4cccc5cccc(Cl)c45)c4ccoc4c23)C[C@@H]1CC#N` [Compound B65, 2-((S)-4-(4-(8-chloronaphthalen-1-yl)-7-(((2S,4R)-4-fluoro-1-methylpyrrolidin-2-yl)methoxy)furo[2,3-f]quinazolin-9-yl)-1-(2-fluoroacryloyl)piperazin-2-yl)acetonitrile], the pIC50 was 7.52. For `C=CC(=O)N1CCN(c2ncnc3cc(-c4c(C)ccc5[nH]ncc45)c4c(c23)OCCC4)CC1` [Compound A13, 1-(4-(5-(5-methyl-1H-indazol-4-yl)-3,4-dihydro-2H-pyrano[2,3-f]quinazolin-10-yl)piperazin-1-yl)prop-2-en-1-one], the pIC50 was 5.48.

Turning to `C=C(F)C(=O)N1CCN(c2nc(OC[C@@H]3CCCN3C)nc3cc(-c4c(F)c(Cl)cc5[nH]ncc45)c4c(c23)OCCC4)C[C@@H]1CC#N` [Compound B42, 2-((2S)-4-(5-(6-chloro-5-fluoro-1H-indazol-4-yl)-8-(((S)-1-methylpyrrolidin-2-yl)methoxy)-3,4-dihydro-2H-pyrano[2,3-f]quinazolin-10-yl)-1-(2-fluoroacryloyl)piperazin-2-yl)acetonitrile], the pIC50 is 7.37. Still for that read-out and setting: in the case of `C=C(F)C(=O)N1CCN(c2nc(OC[C@@H]3CCCN3C)nc3cc(-c4c(Cl)c(C)cc5[nH]ncc45)c4c(c23)OCCC4)C[C@@H]1CC#N` [Compound B11, 2-((2S)-4-(5-(5-chloro-6-methyl-1H-indazol-4-yl)-8-(((S)-1-methylpyrrolidin-2-yl)methoxy)-3,4-dihydro-2H-pyrano[2,3-f]quinazolin-10-yl)-1-(2-fluoroacryloyl)piperazin-2-yl)acetonitrile] it was 8.11; in that of `C=C(F)C(=O)N1CCN(c2nc(N3CC(CC#N)(N(C)C)C3)nc3cc(-c4cccc5cccc(Cl)c45)c4ccoc4c23)C[C@@H]1CC#N` [Compound B80, (S)-2-(4-(4-(8-chloronaphthalen-1-yl)-7-(3-(cyanomethyl)-3-(dimethylamino)azetidin-1-yl)furo[2,3-f]quinazolin-9-yl)-1-(2-fluoroacryloyl)piperazin-2-yl)acetonitrile], 6.65. On the same count and under the same terms, to `C=CC(=O)N1CCN(c2nc(N3CCC(N(C)C)C3)nc3cc(-c4c(Cl)c(C)cc5[nH]ncc45)c4c(c23)OCCC4)CC1` (stereo not shown) [Compound B25, 1-(4-(5-(5-chloro-6-methyl-1H-indazol-4-yl)-8-(3-(dimethylamino)pyrrolidin-1-yl)-3,4-dihydro-2H-pyrano[2,3-f]quinazolin-10-yl)piperazin-1-yl)prop-2-en-1-one] belongs 6.86; to `C=CC(=O)N1CCN(c2ncnc3cc(-c4c(Cl)c(F)cc5[nH]ncc45)c4c(c23)OCCC4)CC1` [Compound A19, 1-(4-(5-(5-chloro-6-fluoro-1H-indazol-4-yl)-3,4-dihydro-2H-pyrano[2,3-f]quinazolin-10-yl)piperazin-1-yl)prop-2-en-1-one], 6.16; to `C=C(F)C(=O)N1CCN(c2nc(OC[C@@H]3CCCN3C)nc3cc(-c4c(Cl)c(Cl)cc5[nH]ncc45)c4c(c23)OCCC4)C[C@@H]1CC#N` [Compound B36, 2-((2S)-4-(5-(5,6-dichloro-1H-indazol-4-yl)-8-(((S)-1-methylpyrrolidin-2-yl)methoxy)-3,4-dihydro-2H-pyrano[2,3-f]quinazolin-10-yl)-1-(2-fluoroacryloyl)piperazin-2-yl)acetonitrile], 7.33. Same read-out and setting: to `C=CC(=O)N1CCN(c2ncnc3cc(-c4c(C)ccc5[nH]ncc45)c4c(c23)OCC=C4)C[C@@H]1CC#N` [Compound A9, 2-((2S)-1-acryloyl-4-(5-(5-methyl-1H-indazol-4-yl)-2H-pyrano[2,3-f]quinazolin-10-yl)piperazin-2-yl)acetonitrile] belongs 6.66.

The values are drawn from patent US20240166660A1, “KRAS G12C INHIBITORS” (BeiGene Switzerland GmbH, priority 2021, published 2024).
